Assay results from the NIST ThermoML archive (doi:10.1021/je7004402).
± gives the expanded uncertainty stated by the source.

Columns and labels:
[1] = refractive index (Na D-line) (dimensionless); details: 298.15 K; 101.33 kPa; Liquid; Standard Abbe refractometry
[2] = Liquid; Ebulliometric method (Recirculating still)

| Structure (SMILES) | refractive index [1] | Normal boiling temperature [2] [°C] |
| --- | --- | --- |
| CCOC=O [ethyl methanoate] | 1.35901 ± 0.00063 | 54.17 ± 0.2 |
| CC(C)c1ccccc1 [isopropylbenzene] | 1.48829 ± 0.00053 | 152.29 ± 0.2 |
| C=COC(C)=O [vinyl acetate] | 1.39236 ± 0.00053 | 72.80 ± 0.2 |
